# Assay results: ChEMBL document CHEMBL4602612, “Design, synthesis and biological evaluation of mogrol derivatives as a novel class of AMPKα2β1γ1 activators” (Bioorg Med Chem Lett, 2020)
# Molecular target: AMPK alpha2/beta1/gamma1 (Homo sapiens, UniProt P54619+P54646+Q9Y478)
# Assay: Allosteric activation of AMPK alpha2/beta1/gamma1 in human HepG2 cells by scintillation proximity assay
# Assay type: cell-based
# Chain of AMPK alpha2/beta1/gamma1 (P54646 whole entry): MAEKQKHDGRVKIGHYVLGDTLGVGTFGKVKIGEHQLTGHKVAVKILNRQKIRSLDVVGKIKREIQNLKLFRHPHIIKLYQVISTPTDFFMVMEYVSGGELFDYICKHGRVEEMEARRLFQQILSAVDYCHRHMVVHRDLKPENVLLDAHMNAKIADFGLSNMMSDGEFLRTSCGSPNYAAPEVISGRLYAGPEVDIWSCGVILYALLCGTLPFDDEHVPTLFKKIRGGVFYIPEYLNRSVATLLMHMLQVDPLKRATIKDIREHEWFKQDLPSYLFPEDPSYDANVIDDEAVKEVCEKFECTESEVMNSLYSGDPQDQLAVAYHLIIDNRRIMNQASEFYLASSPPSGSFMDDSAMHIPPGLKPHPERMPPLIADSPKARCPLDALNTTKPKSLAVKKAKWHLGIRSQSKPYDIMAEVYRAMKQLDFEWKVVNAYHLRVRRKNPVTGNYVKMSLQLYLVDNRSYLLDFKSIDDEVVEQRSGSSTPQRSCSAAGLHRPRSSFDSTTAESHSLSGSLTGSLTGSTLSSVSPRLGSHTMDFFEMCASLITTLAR
# Chain of AMPK alpha2/beta1/gamma1 (P54619 whole entry): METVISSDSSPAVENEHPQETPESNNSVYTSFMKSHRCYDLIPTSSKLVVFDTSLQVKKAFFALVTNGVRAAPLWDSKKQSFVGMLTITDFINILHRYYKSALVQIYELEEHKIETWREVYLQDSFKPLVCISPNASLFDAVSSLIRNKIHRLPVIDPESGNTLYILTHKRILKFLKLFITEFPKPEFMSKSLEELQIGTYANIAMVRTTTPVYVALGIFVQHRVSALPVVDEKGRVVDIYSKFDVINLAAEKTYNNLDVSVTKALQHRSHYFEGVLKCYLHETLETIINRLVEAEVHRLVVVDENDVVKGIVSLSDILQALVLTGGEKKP
# Chain of AMPK alpha2/beta1/gamma1 (Q9Y478 whole entry): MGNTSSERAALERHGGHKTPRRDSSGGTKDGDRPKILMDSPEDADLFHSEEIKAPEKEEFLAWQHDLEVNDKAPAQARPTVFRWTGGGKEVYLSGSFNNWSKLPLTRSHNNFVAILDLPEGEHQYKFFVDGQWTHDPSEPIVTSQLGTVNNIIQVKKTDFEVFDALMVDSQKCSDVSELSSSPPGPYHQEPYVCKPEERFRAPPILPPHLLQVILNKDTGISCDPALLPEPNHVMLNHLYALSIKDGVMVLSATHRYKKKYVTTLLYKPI
row,SMILES,EC50 [nM]
1,C[C@H](CCCNC(C)(C)C)[C@H]1CC[C@@]2(C)[C@@H]3CC=C4[C@@H](CC[C@H](O)C4(C)C)[C@]3(C)[C@H](O)C[C@]12C,1400
2,C[C@H](CCCNCc1cccnc1)[C@H]1CC[C@@]2(C)[C@@H]3CC=C4[C@@H](CC[C@H](O)C4(C)C)[C@]3(C)[C@H](O)C[C@]12C,700
3,CC(C)NCCC[C@@H](C)[C@H]1CC[C@@]2(C)[C@@H]3CC=C4[C@@H](CC[C@H](O)C4(C)C)[C@]3(C)[C@H](O)C[C@]12C,140
4,C[C@H](CCCNCCCO)[C@H]1CC[C@@]2(C)[C@@H]3CC=C4[C@@H](CC[C@H](O)C4(C)C)[C@]3(C)[C@H](O)C[C@]12C,1400
5,COc1ccc(CCNCCC[C@@H](C)[C@H]2CC[C@@]3(C)[C@@H]4CC=C5[C@@H](CC[C@H](O)C5(C)C)[C@]4(C)[C@H](O)C[C@]23C)cc1OC,500
6,Nc1ncnc2c1ncn2[C@@H]1O[C@H](COP(=O)(O)O)[C@@H](O)[C@H]1O [ADENOSINE PHOSPHATE],1400
7,C[C@H](CCCNCc1ccc(Cl)cc1)[C@H]1CC[C@@]2(C)[C@@H]3CC=C4[C@@H](CC[C@H](O)C4(C)C)[C@]3(C)[C@H](O)C[C@]12C,600
8,C[C@H](NCCC[C@@H](C)[C@H]1CC[C@@]2(C)[C@@H]3CC=C4[C@@H](CC[C@H](O)C4(C)C)[C@]3(C)[C@H](O)C[C@]12C)c1ccccc1,1700
9,C[C@H](CCCNCc1ccccc1)[C@H]1CC[C@@]2(C)[C@@H]3CC=C4[C@@H](CC[C@H](O)C4(C)C)[C@]3(C)[C@H](O)C[C@]12C,1500
10,C[C@H](CCCNCc1ccc(F)cc1)[C@H]1CC[C@@]2(C)[C@@H]3CC=C4[C@@H](CC[C@H](O)C4(C)C)[C@]3(C)[C@H](O)C[C@]12C,700
11,C[C@H](CC[C@@H](O)C(C)(C)O)[C@H]1CC[C@@]2(C)[C@@H]3CC=C4[C@@H](CC[C@H](O)C4(C)C)[C@]3(C)[C@H](O)C[C@]12C [MOGROL],3000
12,C[C@H](CCCNC1CC1)[C@H]1CC[C@@]2(C)[C@@H]3CC=C4[C@@H](CC[C@H](O)C4(C)C)[C@]3(C)[C@H](O)C[C@]12C,4100
13,CNCCC[C@@H](C)[C@H]1CC[C@@]2(C)[C@@H]3CC=C4[C@@H](CC[C@H](O)C4(C)C)[C@]3(C)[C@H](O)C[C@]12C,7400
14,C[C@H](CCCNCCc1ccccc1)[C@H]1CC[C@@]2(C)[C@@H]3CC=C4[C@@H](CC[C@H](O)C4(C)C)[C@]3(C)[C@H](O)C[C@]12C,2000
15,C[C@H](CCCNCCN1CCNCC1)[C@H]1CC[C@@]2(C)[C@@H]3CC=C4[C@@H](CC[C@H](O)C4(C)C)[C@]3(C)[C@H](O)C[C@]12C,500
16,C[C@H](CCCNCCc1ccc([N+](=O)[O-])cc1)[C@H]1CC[C@@]2(C)[C@@H]3CC=C4[C@@H](CC[C@H](O)C4(C)C)[C@]3(C)[C@H](O)C[C@]12C,1700
17,CCNCCC[C@@H](C)[C@H]1CC[C@@]2(C)[C@@H]3CC=C4[C@@H](CC[C@H](O)C4(C)C)[C@]3(C)[C@H](O)C[C@]12C,5000
18,C[C@H](CCCNCCCn1ccnc1)[C@H]1CC[C@@]2(C)[C@@H]3CC=C4[C@@H](CC[C@H](O)C4(C)C)[C@]3(C)[C@H](O)C[C@]12C,3500
19,C[C@H](CCCNCc1ccccn1)[C@H]1CC[C@@]2(C)[C@@H]3CC=C4[C@@H](CC[C@H](O)C4(C)C)[C@]3(C)[C@H](O)C[C@]12C,1600
20,CCCNCCC[C@@H](C)[C@H]1CC[C@@]2(C)[C@@H]3CC=C4[C@@H](CC[C@H](O)C4(C)C)[C@]3(C)[C@H](O)C[C@]12C,150
21,COc1ccc(NCCC[C@@H](C)[C@H]2CC[C@@]3(C)[C@@H]4CC=C5[C@@H](CC[C@H](O)C5(C)C)[C@]4(C)[C@H](O)C[C@]23C)cc1,4700
22,COc1ccc(CNCCC[C@@H](C)[C@H]2CC[C@@]3(C)[C@@H]4CC=C5[C@@H](CC[C@H](O)C5(C)C)[C@]4(C)[C@H](O)C[C@]23C)cc1OC,200
23,C[C@H](CCCNCc1ccncc1)[C@H]1CC[C@@]2(C)[C@@H]3CC=C4[C@@H](CC[C@H](O)C4(C)C)[C@]3(C)[C@H](O)C[C@]12C,500

# Molecular target: AMPK alpha2/beta1/gamma1 (Homo sapiens) (UniProt P54646+P54619+Q9Y478)
# Assay: Potency index, ratio of mogrol EC50 to test compound EC50 for allosteric activation of AMPK alpha2/beta1/gamma1 in human HepG2 cells by scintillation proximity assay
# Assay type: cell-based
# Chain of AMPK alpha2/beta1/gamma1 (Homo sapiens) (P54619 whole entry partner): as the sequence (P54619 whole entry) above
# Chain of AMPK alpha2/beta1/gamma1 (Homo sapiens) (P54646 whole entry): as the sequence (P54646 whole entry) above
# Chain of AMPK alpha2/beta1/gamma1 (Homo sapiens) (Q9Y478 2-270 partner limits assumed): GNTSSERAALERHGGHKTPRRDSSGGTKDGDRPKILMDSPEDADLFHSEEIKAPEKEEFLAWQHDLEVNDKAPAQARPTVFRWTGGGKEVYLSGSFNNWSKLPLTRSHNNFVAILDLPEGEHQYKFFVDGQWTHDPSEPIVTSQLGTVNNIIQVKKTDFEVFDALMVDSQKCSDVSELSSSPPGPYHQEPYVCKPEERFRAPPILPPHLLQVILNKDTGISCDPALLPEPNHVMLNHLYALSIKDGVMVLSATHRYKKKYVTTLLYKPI
row,SMILES,Ratio EC50
1,CC(C)NCCC[C@@H](C)[C@H]1CC[C@@]2(C)[C@@H]3CC=C4[C@@H](CC[C@H](O)C4(C)C)[C@]3(C)[C@H](O)C[C@]12C,20
2,CCCNCCC[C@@H](C)[C@H]1CC[C@@]2(C)[C@@H]3CC=C4[C@@H](CC[C@H](O)C4(C)C)[C@]3(C)[C@H](O)C[C@]12C,20
